Columns and labels:
[1] = tested on: gastric cancer; details: olaparib added to second-line chemotherapy with paclitaxel; phase III; cited from earlier work
[2] = tested on: BBGA087 patient derived gastric cancer xenograft; test: Efficacy of pamiparib and oxaliplatin + 5-FU on tumor growth in a patient derived gastric cancer xenograft; format: in vivo, female nod-scid mice; details: BBGA087 model, pamiparib 6 mg/kg p.o. BID
Procedure: (§1) Female nod-scid mice were subcutaneously implanted with BBGA087 patient derived gastric tumor tissue fragments (3×3×3 mm3) in the right flank. After inoculation, tumor volume and body weight were measured twice weekly and calculated using the formula: V=0.5×(a×b2) where a and b were the long and short diameters of the tumor, respectively. When the average tumor size reached 200 mm3, animals were randomly assigned into 3 groups. Animals were treated with vehicle (0.5% methylcellulose, 0.5% MC), pamiparib, oxaliplatin plus 5-Fluorouracil (5-FU), respectively. BGB290 was administered at 6 mg/kg by oral gavage (p.o.) twice daily (BID), oxaliplatin was administered by intraperitoneal (i.p.) injection once per week (QW) for three weeks, and 5-FU was administered by intraperitoneal (i.p.) injection once daily with 5 days per week.
(§2) Data is presented as mean tumor volume+standard error of the mean (SEM). Tumor growth inhibition (TGI) is calculated using the following formula: […]

[3] = tested on: PBMCs; test: Clinical pharmacodynamic target modulation in PBMCs; format: in vivo; details: in the clinic; recommended Phase 2 dose 60 mg BID
[4] = tested on: BBGA087 patient derived gastric cancer xenograft; test: Pamiparib as maintenance therapy after oxaliplatin + 5-FU treatment in the xenograft model; format: in vivo, female nod-scid mice
Procedure: as §1
After 28 days, mice treated with oxaliplatin and 5-FU were reallocated into 2 groups according to the tumor volume, and were treated with either placebo (0.5% MC) or pamiparib as maintenance therapy.
as §2

SMILES	overall survival (OS) compared with paclitaxel and placebo [1]	Mean Tumor Volume on Day 28 ([2]; oxaliplatin 5 mg/kg + 5-FU 15 mg/kg i.p.)	TGI (%) on Day 28 ([2]; oxaliplatin 5 mg/kg i.p. QW*3 plus 5-FU 15 mg/kg i.p. QD*5/week*3)	dose level achieving maximum pharmacodynamic target modulation in PBMCs [3]	Mean Tumor Volume on Day 32 ([4]; maintenance therapy 6 mg/kg BID after 28 days of oxaliplatin + 5-FU, Day 32)	TGI (%) on Day 32 ([4]; maintenance therapy 6 mg/kg BID after 28 days of oxaliplatin + 5-FU, versus placebo (0.5% MC), Day 32)	tumor relapse on maintenance therapy ([4]; pamiparib 6 mg/kg BID as maintenance versus placebo (0.5% MC) after oxaliplatin + 5-FU)
O=C(c1cc(Cc2n[nH]c(=O)c3ccccc23)ccc1F)N1CCN(C(=O)C2CC2)CC1 [olaparib]	failed to improve overall survival						
C[C@]12CCCN1CC1=NNC(=O)c3cc(F)cc4[nH]c2c1c34 [pamiparib]		921 mm3	42%	10 mg BID	222 mm3	96%	tumor relapse was delayed

— patent US20210205323A1, “MAINTENANCE THERAPY OF A PARP INHIBITOR IN TREATING GASTRIC CANCER” (BEIGENE, LTD., priority 2018, published 2021)
